Source: EP4389886A1, “LACTASE ENZYMES AND METHOD OF PRODUCING A MILK-BASED PRODUCT” (Novozymes A/S, priority 2022, dated 2024)
Read-outs that look alike come from different tables or passages of the source.

Legend:
[1] = system: experimental Bifidobacterium lactase; conditions: substrate lactose, cited from earlier work
[2] = system: Saphera® (lactase, Novozymes A/S); test: Lactose turn-over per enzyme molecule in milk at 5°C; type: biochemical
Procedure: (§1) In a preferred embodiment, the enzyme having lactase activity has an initial lactose turn-over of at least 10 per second per enzyme molecule in milk at 5°C. The initial lactose turn-over may be determined, e.g., when 0-10% of the lactose has been hydrolyzed. The skilled person will know how to determine the initial lactose turn-over per enzyme molecule. For example, it can be a direct measurement of lactose using HPLC or indirect using a glucose detection method.

[3] = system: Lactozym® Pure (lactase, Novozymes A/S); test: as above; type: biochemical
Procedure: as §1

[4] = initial rate (4.7% to 4.23% lactose)

OC[C@H]1O[C@@H](O[C@H]2[C@H](O)[C@@H](O)C(O)O[C@@H]2CO)[C@H](O)[C@@H](O)[C@H]1O (some centres unmarked) [lactose]
Km ([1]; at 5°C): 8 mM
Km ([1]; at 37°C): 13 mM
average lactose turn-over from initial lactose of 4.7% to 0.01% residual lactose [2]: about 18 sec^-1
average lactose turn-over from initial lactose of 4.7% to 0.1% residual lactose [2]: about 23 sec^-1
initial lactose turn-over per enzyme molecule [2, 4]: about 89 sec^-1
average lactose turn-over from initial lactose of 4.7% to 0.01% residual lactose [3]: about 5 sec^-1
average lactose turn-over from initial lactose of 4.7% to 0.1% residual lactose [3]: about 9 sec^-1
initial lactose turn-over per enzyme molecule [3, 4]: about 36 sec^-1
